These are literature values, as cited in US20160045473A1, “Biological Basis Of Adult Wellness” (priority 2012, published 2016).

The conditions of the data set: healthy volunteers, at least one study.

Take `O=C(O)[C@@H]1CCCN1` [proline, L-proline]: the absorption entry is “well absorbed”.
